A value given as a limit tells only on which side of the number the result lay.

The subject of assay [1] is HEK-Blue™ IFNγ reporter cells. The assay can be described thus: HEK-Blue IFNγ reporter assay (SEAP) for determining selectivity. It is filed as cell-based. The conditions noted are these: 50 ng/mL human recombinant IFNγ, read-out: IFN-γ (SEAP selectivity, IC50). On the procedure: (§1) Example B-3: HEK-Blue™ IL-2 and IFNγ Reporter Assays for Determining Selectivity
(§2) HEK-Blue™ IL-2 and IFNγ reporter cells with a stably-integrated cytokine receptor and STAT5 or STAT1 express STAT-inducible secreted embryonic alkaline phosphatase (SEAP) reporter gene upon cytokine stimulation. These cells were plated in DMEM (Gibco) containing 10% heat-inactivated FBS (Gibco) and 100 U/mL PenStrep (Gibco) at 37° C. under 5% CO2 conditions for 20-22 hours. The cells were then pre-treated with serially diluted test compounds for 60 min prior to stimulation with either 4 ng/mL human recombinant IL-2 (Miltenyl Biotech) or 50 ng/mL human recombinant IFNγ (InvivoGen) for 24 hours. SEAP induction was measured using the QUANTI-Blue™ Solution (InvivoGen) according to the manufacturer's instructions.
(A reporter such as luciferase makes a cellular process visible.)

For assay [2], the target named is T1, TYK2 Pseudokinase (JH2) (Homo sapiens, UniProt P29597). The assay is described as follows: HEK-Blue IL-23 reporter assay (SEAP) for profiling TYK2 pseudokinase (JH2) inhibition. More on the design: HEK-Blue™ IL-23 and IFNα/β cells with a stably-integrated cytokine receptor and STAT3 or STAT1; endogenous in cells; host or cells: HEK-Blue IL-23 and HEK-Blue IFNα/β cells. It is filed as cell-based. The conditions noted are these: HEK-Blue IL-23 cells, 10 ng/mL human recombinant IL-23, SEAP reporter; read-out: IL23 (TYK2 inhibitory activity, IC50). The protocol:
(§3) Example B-1: HEK-Blue™ IL-23 and IFNα/β Reporter Assays for Profiling TYK2 Pseudokinase (JH2) Inhibition
(§4) HEK-Blue™ IL-23 and IFNα/β cells with a stably-integrated cytokine receptor and STAT3 or STAT1 express STAT-inducible secreted embryonic alkaline phosphatase (SEAP) reporter gene upon cytokine stimulation. These cells are plated in DMEM (Gibco) containing 10% heat-inactivated FBS (Gibco) and 100 U/mL PenStrep (Gibco) at 37° C. under 5% CO2 conditions for 20-22 hours. The cells are then pretreated with serially diluted test compounds for 60 min prior to stimulation with either 10 ng/mL human recombinant IL-23 (Miltenyl Biotech) or 1 ng/mL human recombinant IFNα (InvivoGen) for 22-24 hours for IL-23 or 16-18 h for IFNα. SEAP induction is measured using the QUANTI Blue™ Solution (InvivoGen) according to the manufacturer's instructions.

Assay [3] concerns the target T1, TYK2 Pseudokinase (JH2). The assay is described as follows: HEK-Blue IFNα/β reporter assay (SEAP) for profiling TYK2 pseudokinase (JH2) inhibition. Format: cell-based. The conditions noted are these: HEK-Blue IFNα/β cells, 1 ng/mL human recombinant IFNα, read-out: IFNα (TYK2 inhibitory activity, IC50). The protocol:
as §3, §4

Another assay has as its target T2, TYK2-JH1 (Homo sapiens, UniProt P29597).
T2 construct: recombinant purified His or GST-tagged catalytic domain for each enzyme; made in house
T2 sequence (P29597 897-1176 limits assumed): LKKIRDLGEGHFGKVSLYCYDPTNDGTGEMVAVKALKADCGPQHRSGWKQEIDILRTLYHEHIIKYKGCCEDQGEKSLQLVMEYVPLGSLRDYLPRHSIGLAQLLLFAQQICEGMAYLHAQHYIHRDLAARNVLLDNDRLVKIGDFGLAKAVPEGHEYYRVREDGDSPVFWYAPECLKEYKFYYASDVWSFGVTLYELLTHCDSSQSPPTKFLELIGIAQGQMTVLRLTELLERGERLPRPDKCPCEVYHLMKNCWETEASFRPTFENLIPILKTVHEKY
The assay is described as follows: HTRF-based selectivity assay, TYK2 catalytic domain. The conditions noted are these: kinase domain (JH1), ATP 20 μM. Format: biochemical. On the procedure: (§5) Example B-2: HTRF-Based Selectivity Assay
(§6) The ability of compounds to inhibit the activity of JAK1, JAK2, JAK3 and TYK2 is measured using a recombinant purified His or GST-tagged catalytic domain for each enzyme (JAK1, JAK2 and TYK2 are generated in-house; JAK3 was purchased from Carna biosciences, Cat #08-046) in an HTRF format biochemical assay. The reactions employs a commercial peptide substrate from Cisbio (Cat #62TK0PEC). The basic assay protocol is as follows: first, 2.5 μL of diluted compounds (4×) in DMSO are dispensed into a 384-well Optiplate. Next, 2.5 μL of enzyme (final concentrations for enzymes are: TYK2—700 ng/mL, JAK1—80.6 ng/mL, JAK2—2.1 ng/mL and JAK3—171.8 ng/mL) is added and incubated at RT for 5-20 min. Finally, 5 μl of mixture of 2×ATP [Final concentration 20 μM for TYK2, 21.43 μM for JAK1, 14.7 μM for JAK2 and 2.12 μM for JAK3]+2× Substrate [Final concentration 217 nM for TYK2, 454.7 nM for JAK1, 200 nM for JAK2 and 257.4 nM for JAK3] is added to 384 well Optiplate. Composition of Kinase assay buffer used in the assay is as follows: HEPES 50 mM, EGTA 1 mM, MgCl2 10 mM, DTT 2 mM, Tween-20 0.01% and water. Then the plates are shaken and then incubated at 26.5° C. for 60 min.
A general note: Time-resolved FRET reads energy transfer from a long-lived donor to a nearby acceptor.

Assay [4] deals with HEK-Blue™ IL-2 reporter cells. The assay can be described thus: HEK-Blue IL-2 reporter assay (SEAP) for determining selectivity. It is filed as cell-based. The conditions noted are these: HEK-Blue IL-2 cells, 4 ng/mL human recombinant IL-2, SEAP reporter. On the procedure: as §1, §2
The target in the next assay is T3, JAK1-JH1 (Homo sapiens, UniProt P23458).
T3 construct: recombinant purified His or GST-tagged catalytic domain for each enzyme; made in house
The assay is described as follows: HTRF-based selectivity assay, JAK1 catalytic domain. The conditions noted are these: kinase domain (JH1), ATP 21.43 μM. It is filed as biochemical. On the procedure:
as §5, §6

The next assay addresses T4, JAK2-JH1 (Homo sapiens, UniProt O60674).
T4 construct: recombinant purified His or GST-tagged catalytic domain for each enzyme; made in house
The assay is described as follows: HTRF-based selectivity assay, JAK2 catalytic domain. The conditions noted are these: kinase domain (JH1), ATP 14.7 μM. Format: biochemical. On the procedure: as §5, §6

For another assay, the target named is T5, JAK3-JH1 (Homo sapiens, UniProt P52333).
T5 construct: recombinant purified His or GST-tagged catalytic domain for each enzyme; purchased Carna biosciences 08-046
The assay is described as follows: HTRF-based selectivity assay, JAK3 catalytic domain. Format: biochemical. Particulars: kinase domain (JH1), ATP 2.12 μM. On the procedure: as §5, §6

T1 sequence (P29597 whole entry): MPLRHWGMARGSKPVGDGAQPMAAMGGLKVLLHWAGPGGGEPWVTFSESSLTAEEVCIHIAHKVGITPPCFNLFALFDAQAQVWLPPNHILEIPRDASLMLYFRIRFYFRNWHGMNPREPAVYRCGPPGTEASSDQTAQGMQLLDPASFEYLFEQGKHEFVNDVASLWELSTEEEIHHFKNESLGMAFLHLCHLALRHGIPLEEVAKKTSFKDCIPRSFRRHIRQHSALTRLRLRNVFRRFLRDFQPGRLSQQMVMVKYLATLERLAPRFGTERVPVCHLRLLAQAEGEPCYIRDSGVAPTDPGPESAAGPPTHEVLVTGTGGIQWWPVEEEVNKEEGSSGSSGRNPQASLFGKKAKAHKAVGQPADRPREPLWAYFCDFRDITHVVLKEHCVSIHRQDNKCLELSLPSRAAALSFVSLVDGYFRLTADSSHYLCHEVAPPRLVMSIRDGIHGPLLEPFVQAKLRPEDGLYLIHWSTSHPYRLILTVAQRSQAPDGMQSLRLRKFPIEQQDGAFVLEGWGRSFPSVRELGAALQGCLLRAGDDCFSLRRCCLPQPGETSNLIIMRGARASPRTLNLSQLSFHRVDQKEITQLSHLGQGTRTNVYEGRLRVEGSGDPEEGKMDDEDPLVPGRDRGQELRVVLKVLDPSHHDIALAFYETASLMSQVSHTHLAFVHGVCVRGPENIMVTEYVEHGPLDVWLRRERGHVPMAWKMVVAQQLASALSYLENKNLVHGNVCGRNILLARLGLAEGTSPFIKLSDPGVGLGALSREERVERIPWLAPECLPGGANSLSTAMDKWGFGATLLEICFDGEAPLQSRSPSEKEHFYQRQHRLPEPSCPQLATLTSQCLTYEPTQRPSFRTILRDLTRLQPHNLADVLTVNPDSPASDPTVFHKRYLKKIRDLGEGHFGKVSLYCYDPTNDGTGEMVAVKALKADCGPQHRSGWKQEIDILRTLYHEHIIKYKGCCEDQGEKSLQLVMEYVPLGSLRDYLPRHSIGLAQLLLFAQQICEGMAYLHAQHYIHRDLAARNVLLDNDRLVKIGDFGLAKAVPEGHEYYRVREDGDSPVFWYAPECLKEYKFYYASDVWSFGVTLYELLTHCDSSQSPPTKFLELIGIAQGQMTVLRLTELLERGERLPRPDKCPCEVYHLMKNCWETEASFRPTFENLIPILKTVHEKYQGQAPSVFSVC
T3 sequence (P23458 875-1153 limits assumed): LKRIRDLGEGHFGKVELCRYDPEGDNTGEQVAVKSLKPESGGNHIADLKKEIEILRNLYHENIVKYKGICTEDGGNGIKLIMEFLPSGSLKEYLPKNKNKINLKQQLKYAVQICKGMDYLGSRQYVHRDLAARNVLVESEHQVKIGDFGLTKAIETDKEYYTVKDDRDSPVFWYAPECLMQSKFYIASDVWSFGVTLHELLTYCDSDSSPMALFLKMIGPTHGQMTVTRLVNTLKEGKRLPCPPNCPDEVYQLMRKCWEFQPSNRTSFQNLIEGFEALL
T5 sequence (P52333 822-1111 limits assumed): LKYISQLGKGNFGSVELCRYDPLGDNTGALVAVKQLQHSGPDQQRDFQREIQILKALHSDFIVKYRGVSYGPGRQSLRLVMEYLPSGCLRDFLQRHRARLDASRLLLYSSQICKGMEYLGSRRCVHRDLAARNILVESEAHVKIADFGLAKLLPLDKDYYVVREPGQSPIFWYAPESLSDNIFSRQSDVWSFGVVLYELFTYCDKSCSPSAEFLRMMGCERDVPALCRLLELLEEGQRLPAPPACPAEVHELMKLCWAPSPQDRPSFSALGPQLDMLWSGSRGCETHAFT
T4 sequence (O60674 849-1124 limits assumed): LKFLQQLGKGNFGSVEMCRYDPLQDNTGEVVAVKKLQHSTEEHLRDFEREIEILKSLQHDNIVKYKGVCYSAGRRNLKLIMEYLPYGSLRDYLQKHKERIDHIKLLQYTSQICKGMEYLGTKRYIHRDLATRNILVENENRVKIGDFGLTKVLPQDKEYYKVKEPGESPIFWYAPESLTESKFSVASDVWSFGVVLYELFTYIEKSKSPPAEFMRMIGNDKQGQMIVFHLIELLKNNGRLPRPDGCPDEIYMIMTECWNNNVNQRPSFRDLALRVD

For the compound `CNC(=O)c1nnc(Nc2ccc(F)cn2)cc1Nc1cccc2c1OCc1conc1-2` [Compound 2, 4-((4H-chromeno[4,3-c]isoxazol-6-yl)amino)-6-((5-fluoropyridin-2-yl)amino)-N-methylpyridazine-3-carboxamide], the IC50 was 300 to 1000 nM in assay [1]; < 30 nM on TYK2 Pseudokinase (JH2) [2]; > 1000 nM at TYK2 Pseudokinase (JH2) [3]; > 1000 nM against TYK2-JH1; > 1000 nM in assay [4]; > 1000 nM at JAK1-JH1. Moreover, the concentration for half-maximal inhibition (IC50) against JAK2-JH1 and against JAK3-JH1 was > 1000 nM each time.
As for `[2H]C([2H])([2H])NC(=O)c1cnc(NC(=O)C2CC2)cc1Nc1cc(F)cc2c1N(C)Cc1nn(C)c(=O)n1-2` [Compound 16, 6-(cyclopropanecarboxamido)-4-((8-fluoro-2,5-dimethyl-1-oxo-1,2,4,5-tetrahydro-[1,2,4]triazolo[4,3-a]quinoxalin-6-yl)amino)-N-(methyl-d3)nicotinamide], the IC50 in assay [1] is > 1000 nM; at TYK2 Pseudokinase (JH2) [2] it was < 30 nM; at TYK2 Pseudokinase (JH2) [3] it was < 30 nM; against TYK2-JH1, > 1000 nM; in assay [4], > 1000 nM; against JAK1-JH1, > 1000 nM. In addition, the IC50 against JAK2-JH1 and on JAK3-JH1 was > 1000 nM in each case.

One may read the IC50 as the point on the concentration scale where inhibition reaches its midpoint.

The values above are taken from patent publication US20240189309A1, “TYK2 INHIBITORS AND USES THEREOF” (Sudo Biosciences Limited, priority 2021, published 2024).
